According to patent publication US7365053B2, “Selective N-acylation of A82846 glygopeptides analogs” (priority 2000, dated 2008):
In brackets after ≈: the same amount, converted by molar mass.

Assays:
[1] = tested on: vancomycin-sensitive enterococci; test: In vitro activity against enterococci, broth microdilution; format: cell-based, Enterococcus faecium and Enterococcus faecalis; conditions: representative vancomycin-sensitive enterococci (E. faecium and E. faecalis); BHI medium
Procedure: (§1) The compounds of the present invention have in vitro activity against Gram-positive pathogenic bacteria. The antibacterial activity of the present compounds is illustrated in Tables III and IV. The minimal inhibitory concentrations (MICs) were determined using a standard broth micro-dilution assay. Table IV presents a comparison of the activity of illustrative compounds against representative vancomycin-resistant and vancomycin-sensitive enterococci (Enterococcus faecium and Enterococcus faecalis), mean geometric MIC (mcg/mL), as determined by the standard broth microdilution assay.
(§2) Assays for antimicrobial activity were performed using microbroth susceptibility testing methods as described by the NCCLS (National Committee for Clinical Laboratories Standards. 1990. Approved standard M7-A2. Methods for dilution antimicrobial susceptibility testing for bacteria that grow aerobically, 2 ed., Villanova Pa.). Brain-heart infusion medium (BHI) was used for testing of enterococci, and NCCLS recommendations for medium were followed for other bacteria.

[2] = tested on: vancomycin-resistant enterococci; test: as above; format: cell-based, Enterococcus faecium and Enterococcus faecalis; conditions: representative vancomycin-resistant enterococci (E. faecium and E. faecalis); BHI medium
Procedure: as §1, §2

[3] = tested on: Enterococcus faecium 180; test: Broth micro-dilution MIC; format: cell-based; conditions: BHI medium
Procedure: as §1, §2

[4] = tested on: Staphylococcus aureus SA1199B; test: Broth micro-dilution MIC; format: cell-based
Procedure: as §1, §2

[5] = tested on: Staphylococcus aureus 447; test: Broth micro-dilution MIC; format: cell-based
Procedure: as §1, §2

[6] = tested on: Haemophilus influenzae RD; test: Broth micro-dilution MIC; format: cell-based
Procedure: as §1, §2

[7] = tested on: Streptococcus pyogenes C203; test: Broth micro-dilution MIC; format: cell-based
Procedure: as §1, §2

[8] = tested on: Staphylococcus aureus 491; test: Broth micro-dilution MIC; format: cell-based
Procedure: as §1, §2

[9] = tested on: Staphylococcus aureus SA1199A; test: Broth micro-dilution MIC; format: cell-based
Procedure: as §1, §2

[10] = tested on: Enterococcus faecalis 276; test: Broth micro-dilution MIC; format: cell-based; conditions: BHI medium
Procedure: as §1, §2

[11] = tested on: Staphylococcus aureus SA1199; test: Broth micro-dilution MIC; format: cell-based
Procedure: as §1, §2

[12] = tested on: Escherichia coli EC14; test: Broth micro-dilution MIC; format: cell-based
Procedure: as §1, §2

[13] = tested on: Staphylococcus aureus 489; test: Broth micro-dilution MIC; format: cell-based
Procedure: as §1, §2

[14] = tested on: Enterococcus gallinarum 245; test: Broth micro-dilution MIC; format: cell-based; conditions: BHI medium
Procedure: as §1, §2

[15] = tested on: Staphylococcus haemolyticus 415; test: Broth micro-dilution MIC; format: cell-based
Procedure: as §1, §2

[16] = tested on: Staphylococcus haemolyticus 105; test: Broth micro-dilution MIC; format: cell-based
Procedure: as §1, §2

[17] = tested on: Staphylococcus aureus S13E; test: Broth micro-dilution MIC; format: cell-based
Procedure: as §1, §2

[18] = tested on: Streptococcus pneumoniae P1; test: Broth micro-dilution MIC; format: cell-based
Procedure: as §1, §2

[19] = tested on: Staphylococcus aureus X400; test: Broth micro-dilution MIC; format: cell-based
Procedure: as §1, §2

[20] = tested on: Staphylococcus aureus 446; test: Broth micro-dilution MIC; format: cell-based
Procedure: as §1, §2

[21] = tested on: Staphylococcus aureus X778; test: Broth micro-dilution MIC; format: cell-based
Procedure: as §1, §2

[22] = tested on: Staphylococcus epidermidis 270; test: Broth micro-dilution MIC; format: cell-based
Procedure: as §1, §2

[23] = tested on: Enterococcus faecalis 2041; test: Broth micro-dilution MIC; format: cell-based; conditions: BHI medium
Procedure: as §1, §2

[24] = tested on: Enterococcus faecium 180-1; test: Broth micro-dilution MIC; format: cell-based; conditions: BHI medium
Procedure: as §1, §2

SMILES | Mean geometric MIC, Vancomycin Sensitive Strains [1] | Mean geometric MIC, Vancomycin Resistant Strains [2] | MIC [3] | MIC [4] | MIC [5] | MIC [6] | MIC [7] | MIC [8] | MIC [9] | MIC [10] | MIC [11] | MIC [12] | MIC [13] | MIC [14] | MIC [15] | MIC [16] | MIC [17] | MIC [18] | MIC [19] | MIC [20] | further results
CCCCCCCC(=O)NC1(C)CC(OC2C(Oc3c4cc5cc3Oc3ccc(cc3Cl)C(OC3CC(C)(N)C(O)C(C)O3)C3NC(=O)C(NC(=O)C5NC(=O)C(CC(N)=O)NC(=O)C(NC(=O)C(CC(C)C)NC)C(O)c5ccc(c(Cl)c5)O4)c4ccc(O)c(c4)-c4c(O)cc(O)cc4C(C(=O)O)NC3=O)OC(CO)C(O)C2O)OC(C)C1O (stereo not drawn) [Example 8, 4′-N-octanoyl-A82846B] | 0.87 µg/mL | 54 µg/mL | 2 µg/mL (≈ 1.16 µM) | 2 µg/mL (≈ 1.16 µM) | 8 µg/mL (≈ 4.65 µM) | 64 µg/mL (≈ 37.2 µM) | ≦.06 μg/ml | 0.25 µg/mL (≈ 0.145 µM) | 0.25 µg/mL (≈ 0.145 µM) | 0.5 µg/mL (≈ 0.291 µM) | 2 µg/mL (≈ 1.16 µM) | >64 µg/mL | 0.25 µg/mL (≈ 0.145 µM) | 16 µg/mL (≈ 9.31 µM) | 16 µg/mL (≈ 9.31 µM) | 0.5 µg/mL (≈ 0.291 µM) | 2 µg/mL (≈ 1.16 µM) | ≦.06 μg/ml | 0.5 µg/mL (≈ 0.291 µM) | 2 µg/mL (≈ 1.16 µM) | MIC [21]: 1 µg/mL (≈ 0.582 µM); MIC [22]: 8 µg/mL (≈ 4.65 µM); MIC [23]: 0.25 µg/mL (≈ 0.145 µM); MIC [24]: 0.125 µg/mL (≈ 0.0727 µM)
CCCCCCCCOc1ccc(C(=O)NC2(C)CC(OC3c4ccc(c(Cl)c4)Oc4cc5cc(c4OC4OC(CO)C(O)C(O)C4OC4CC(C)(N)C(O)C(C)O4)Oc4ccc(cc4Cl)C(O)C(NC(=O)C(CC(C)C)NC)C(=O)NC(CC(N)=O)C(=O)NC5C(=O)NC4C(=O)NC3C(=O)NC(C(=O)O)c3cc(O)cc(O)c3-c3cc4ccc3O)OC(C)C2O)cc1 (stereo not drawn) [Example 7] | 0.06 µg/mL | 6.7 µg/mL | 0.5 µg/mL (≈ 0.274 µM) | ≦.06 μg/ml | 0.125 µg/mL (≈ 0.0685 µM) | >64 µg/mL | ≦.06 μg/ml | ≦.06 μg/ml | ≦.06 μg/ml | ≦.06 μg/ml | ≦.06 μg/ml | >64 µg/mL | ≦.06 μg/ml | 8 µg/mL (≈ 4.38 µM) | 8 µg/mL (≈ 4.38 µM) | ≦.06 μg/ml | ≦.06 μg/ml | ≦.06 μg/ml | 0.125 µg/mL (≈ 0.0685 µM) | ≦.06 μg/ml | MIC [21]: 0.125 µg/mL (≈ 0.0685 µM); MIC [22]: ≦.06 μg/ml; MIC [23]: ≦.06 μg/ml; MIC [24]: ≦.06 μg/ml
CNC(CC(C)C)C(=O)NC1C(=O)NC(CC(N)=O)C(=O)NC2C(=O)NC3C(=O)NC(C(=O)NC(C(=O)O)c4cc(O)cc(O)c4-c4cc3ccc4O)C(OC3CC(C)(NC(=O)c4ccc(-c5ccc(Cl)cc5)cc4)C(O)C(C)O3)c3ccc(c(Cl)c3)Oc3cc2cc(c3OC2OC(CO)C(O)C(O)C2OC2CC(C)(N)C(O)C(C)O2)Oc2ccc(cc2Cl)C1O (stereo not drawn) [Example 5] | 0.29 µg/mL | 19 µg/mL | 1 µg/mL (≈ 0.553 µM) | 0.25 µg/mL (≈ 0.138 µM) | 2 µg/mL (≈ 1.11 µM) | >64 µg/mL | ≦.06 μg/ml | ≦.06 μg/ml | ≦.06 μg/ml | ≦.06 μg/ml | 0.5 µg/mL (≈ 0.277 µM) | >64 µg/mL | ≦.06 μg/ml | 8 µg/mL (≈ 4.43 µM) | 8 µg/mL (≈ 4.43 µM) | 0.5 µg/mL (≈ 0.277 µM) | 0.5 µg/mL (≈ 0.277 µM) | ≦.06 μg/ml | ≦.06 μg/ml | 0.5 µg/mL (≈ 0.277 µM) | MIC [21]: 0.5 µg/mL (≈ 0.277 µM); MIC [22]: 4 µg/mL (≈ 2.21 µM); MIC [23]: ≦.06 μg/ml; MIC [24]: ≦.06 μg/ml
CNC(CC(C)C)C(=O)NC1C(=O)NC(CC(N)=O)C(=O)NC2C(=O)NC3C(=O)NC(C(=O)NC(C(=O)O)c4cc(O)cc(O)c4-c4cc3ccc4O)C(OC3CC(C)(N)C(O)C(C)O3)c3ccc(c(Cl)c3)Oc3cc2cc(c3OC2OC(CO)C(O)C(O)C2OC2CC(C)(NC(=O)c3ccc(-c4ccc(Cl)cc4)cc3)C(O)C(C)O2)Oc2ccc(cc2Cl)C1O (stereo not drawn) [Example 4] | 0.093 µg/mL | 3.4 µg/mL | ≦.06 μg/ml | 0.5 µg/mL (≈ 0.277 µM) | 4 µg/mL (≈ 2.21 µM) | 0.25 µg/mL (≈ 0.138 µM) | 0.125 µg/mL (≈ 0.0692 µM) | 0.5 µg/mL (≈ 0.277 µM) | 0.25 µg/mL (≈ 0.138 µM) | 0.125 µg/mL (≈ 0.0692 µM) | 0.5 µg/mL (≈ 0.277 µM) | >64 µg/mL | 0.25 µg/mL (≈ 0.138 µM) | 4 µg/mL (≈ 2.21 µM) | 4 µg/mL (≈ 2.21 µM) | 1 µg/mL (≈ 0.553 µM) | 0.5 µg/mL (≈ 0.277 µM) | 0.125 µg/mL (≈ 0.0692 µM) | 0.25 µg/mL (≈ 0.138 µM) | 1 µg/mL (≈ 0.553 µM) | MIC [21]: 0.25 µg/mL (≈ 0.138 µM); MIC [22]: 2 µg/mL (≈ 1.11 µM); MIC [23]: ≦.06 μg/ml; MIC [24]: ≦.06 μg/ml
CNC(CC(C)C)C(=O)NC1C(=O)NC(CC(N)=O)C(=O)NC2C(=O)NC3C(=O)NC(C(=O)NC(C(=O)O)c4cc(O)cc(O)c4-c4cc3ccc4O)C(OC3CC(C)(N)C(O)C(C)O3)c3ccc(c(Cl)c3)Oc3cc2cc(c3OC2OC(CO)C(O)C(O)C2OC2CC(C)(NC(=O)c3ccc(-c4ccccc4)cc3)C(O)C(C)O2)Oc2ccc(cc2Cl)C1O (stereo not drawn) [Example 1] | 0.38 µg/mL | 11.3 µg/mL | 0.25 µg/mL (≈ 0.141 µM) | 2 µg/mL (≈ 1.13 µM) | 16 µg/mL (≈ 9.03 µM) | >64 µg/mL | ≦.06 μg/ml | 0.25 µg/mL (≈ 0.141 µM) | 0.125 µg/mL (≈ 0.0705 µM) | 0.5 µg/mL (≈ 0.282 µM) | 2 µg/mL (≈ 1.13 µM) | >64 µg/mL | 0.5 µg/mL (≈ 0.282 µM) | 8 µg/mL (≈ 4.51 µM) | 8 µg/mL (≈ 4.51 µM) | 1 µg/mL (≈ 0.564 µM) | 2 µg/mL (≈ 1.13 µM) | ≦.06 μg/ml | 1 µg/mL (≈ 0.564 µM) | 2 µg/mL (≈ 1.13 µM) | MIC [21]: 1 µg/mL (≈ 0.564 µM); MIC [22]: 16 µg/mL (≈ 9.03 µM); MIC [23]: 0.125 µg/mL (≈ 0.0705 µM); MIC [24]: ≦.06 μg/ml
CC(C)CC(C(=O)NC1C(=O)NC(CC(N)=O)C(=O)NC2C(=O)NC3C(=O)NC(C(=O)NC(C(=O)O)c4cc(O)cc(O)c4-c4cc3ccc4O)C(OC3CC(C)(N)C(O)C(C)O3)c3ccc(c(Cl)c3)Oc3cc2cc(c3OC2OC(CO)C(O)C(O)C2OC2CC(C)(N)C(O)C(C)O2)Oc2ccc(cc2Cl)C1O)N(C)C(=O)c1ccc(-c2ccccc2)cc1 (stereo not drawn) [Example 3] | 0.19 µg/mL | 4 µg/mL | 0.25 µg/mL (≈ 0.141 µM) | 2 µg/mL (≈ 1.13 µM) | 16 µg/mL (≈ 9.03 µM) | >64 µg/mL | ≦.06 μg/ml | 0.5 µg/mL (≈ 0.282 µM) | 1 µg/mL (≈ 0.564 µM) | 0.125 µg/mL (≈ 0.0705 µM) | 1 µg/mL (≈ 0.564 µM) | >64 µg/mL | 0.5 µg/mL (≈ 0.282 µM) | 2 µg/mL (≈ 1.13 µM) | 2 µg/mL (≈ 1.13 µM) | 4 µg/mL (≈ 2.26 µM) | 0.25 µg/mL (≈ 0.141 µM) | ≦.06 μg/ml | 0.5 µg/mL (≈ 0.282 µM) | 0.5 µg/mL (≈ 0.282 µM) | MIC [21]: 1 µg/mL (≈ 0.564 µM); MIC [22]: 2 µg/mL (≈ 1.13 µM); MIC [23]: ≦.06 μg/ml; MIC [24]: ≦.06 μg/ml
